From US8765464B2, “Kit for culturing cells comprising tube with flat wall, extracellular matrix and culture medium” (Kurashiki Boseki Kabushiki Kaisha, priority 2001, dated 2014)
Counter-ions that a name gives are not always drawn.

Experiments:
[1] = tested on: C-1, A-549, MKN-28, HFL-1 and WI-38 cell lines; test: Confirmation test of cell toxicity according to vancomycin amount: cell proliferativity in preliminary culture step, cell lines; format: cell-based, human; settings: various cells, after 48 hours from the beginning of the culture
Protocol: (§1) Specifically, it is confirmed whether the vancomycin in the culture medium of the preliminary culture step has a unfavorable influence upon the cell proliferativity in the preliminary culture step, the cell proliferativity in the proliferative culture step, and the anticancer agent sensitivity test results or not, and then the following test was carried out. Herein, the unfavorable influence means such an influence as causes to decrease the cell proliferativity and success rate of the anticancer agent sensitivity test.
(§2) As to the test material and the number of cells as seeded (test material/number of cells as seeded), the following were used: • C-1 (human colon cancer cell line)/1×10^5 cells/well • A-549 (human lung cancer cell line)/1×10^5 cells/well • MKN-28 human stomach cancer cell line)/1×10^5 cells/well • HFL-1 and WI-38 (human fibroblast cells line)/1×10^5 cells/well • Lung-k human primary lung cancer cells)/5×10^5 cells/well (in the preliminary culture step) or 2×10^5 cells/well (in the proliferative culture step) […]
(§3) […] After the cells were counted with a blood-cell counter board, the cell number per 1 ml of the culture medium was calculated, and the cell proliferativity in the preliminary culture step was observed.

[2] = tested on: Lung-k human primary lung cancer cells; test: Confirmation test of cell toxicity according to vancomycin amount: preliminary culture step, primary cells; format: cell-based; settings: human primary culturing cells, after 48 hours from the beginning of the culture
Protocol: as §1, §2, §3

[3] = tested on: C-1, A-549, MKN-28, HFL-1, WI-38 cell lines and Lung-k primary lung cancer cells; test: Confirmation test of cell toxicity according to vancomycin amount: cell proliferativity in proliferative culture step; format: cell-based, human; settings: vancomycin not more than 3.0 mg/ml added in the preliminary culture step; after 7 days culture
Source text: (§4) As to the test material and the number of cells as seeded (test material/number of cells as seeded), the following were used: • C-1 (human colon cancer cell line)/1×10^5 cells/well • A-549 (human lung cancer cell line)/1×10^5 cells/well • MKN-28 human stomach cancer cell line)/1×10^5 cells/well • HFL-1 and WI-38 (human fibroblast cells line)/1×10^5 cells/well • Lung-k human primary lung cancer cells)/5×10^5 cells/well (in the preliminary culture step) or 2×10^5 cells/well (in the proliferative culture step)
(§5) The culture medium in the preliminary culture step was a culture medium as used in Example 1, and only the concentrations of the vancomycin produced by Wako Pure Chemicals Co., Ltd.) therein were settled in the following conditions: 0.1 mg/ml, 0.5 mg/ml, 1.0 mg/ml, 1.5 mg/ml, 2.0 mg/ml, 2.5 mg/ml, 3.0 mg/ml, 4.0 mg/ml, and 5.0 mg/ml, and tests were carried out in each condition. […]
(§6) (5) The resultant test plate is quantitatively analyzed with an image analyzer, and then the unfavorable influence upon the cell proliferativity and the anticancer agent sensitivity test results (antitumor effect T/C (%): relative proliferation ratio T/C (%) between a group non-treated with anticancer agents (C) and a group treated with anticancer agents (T), in the case where the ratio is not more than 50%, it is defined as having a sensitivity.) are observed. […]

[4] = tested on: C-1, A-549, MKN-28, HFL-1, WI-38 cell lines and Lung-k primary lung cancer cells; test: Influence of vancomycin amount upon anticancer agent sensitivity test results; format: cell-based, human; settings: vancomycin not more than 3.0 mg/ml added in the preliminary culture step; Taxol, Taxotere, Gemcitabine, Navelbine
Source text: as §4, §5, §6

## CN[C@H](CC(C)C)C(=O)N[C@H]1C(=O)N[C@@H](CC(N)=O)C(=O)N[C@H]2C(=O)N[C@H]3C(=O)N[C@H](C(=O)N[C@H](C(=O)O)c4cc(O)cc(O)c4-c4cc3ccc4O)[C@H](O)c3ccc(c(Cl)c3)Oc3cc2cc(c3O[C@@H]2O[C@H](CO)[C@@H](O)[C@H](O)[C@H]2O[C@H]2C[C@](C)(N)[C@H](O)[C@H](C)O2)Oc2ccc(cc2Cl)[C@H]1O [vancomycin, vancomycin hydrochloride]
[1]
  vancomycin concentration at which the cell proliferation was as good as without vancomycin: not more than 2.0 mg/ml
[2]
  vancomycin concentration at which the cell number was maintained and cell toxicity (cells-killing action) was not observed: not more than 3.0 mg/ml
[3]
  unfavorable influence upon the cell proliferativity in the proliferative culture step: not found
[4]
  unfavorable influence upon the anticancer agent sensitivity test results (antitumor effect T/C (%)): no unfavorable influence
